Measurements as given in patent US10882835B2 (Imago Biosciences, Inc., priority 2013, dated 2021).

Columns and labels:
KDM1A (LSD1) = KDM1A (LSD1) (Homo sapiens (Human), UniProt O60341); assay: 10-dose IC50 fluorescence coupling enzyme assay, LSD1 demethylase activity on histone H3(1-21)K4me2 peptide (HRP/Amplex Red); assay type: biochemical; details: 10 μM histone H3(1-21)K4me2 peptide substrate
[1] = Metabolic stability in murine liver microsomes; assay type: in vitro ADME; details: mouse liver microsomes, 2 μM compound, NADPH
Method: The metabolic stability of compounds disclosed herein in pooled human liver microsomes (HLM) and pooled male mouse liver microsomes (MMLM) was determined according to the following protocol, in which the concentrations of compounds in reaction systems were evaluated by LC/MS/MS for estimating the stability in liver microsomes.
Pooled human liver microsomes (HMMCPL; PL050B) and pooled male mouse liver microsomes (MSMCPL; MS033) were purchased from CellzDirect (Invitrogen). Microsomes were stored at −80 C prior to use.
A master solution was prepared containing microsome (stock concentration 5 mg/mL, volume 50 μL, final concentration 0.5 mg/mL), MgCl2 solution (stock concentration 50 mM, volume 50 μL, final concentration 5 mM), phosphate buffer (stock concentration 200 mM, volume 250 μL, final concentration 100 mM), and water (volume […]. Five μL of 200 μM test compounds or control solution (control compound: verapamil) was then added. The final concentration of test compounds or verapamil in the reaction system was 2 μM. The mixture was pre-warmed at 37 C for 5 min.
The reaction was started with the addition of 50 μL of 10 mM NADPH solution at the final concentration of 1 mM and carried out at 37 C. 50 μL of ultra-pure H2O was used instead of NADPH solution in the negative control.
Aliquots of 50 μL were taken from the reaction solution at 0 and 30 min. The reaction was stopped by the addition of 3 volumes of cold methanol with IS (200 nM imipramine, 200 nM labetalol and 2 μM ketoprofen) at the designated time points. Samples were centrifuged at 16,000 g for 10 minutes to precipitate protein. Aliquot of 100 μL of the supernatant was diluted by 100 μL ultra-pure H2O, and the mixture was used for LC/MS/MS analysis. All experiments were performed in duplicate.
Samples were analyzed using liquid chromatography-mass spectrometry. The LC system comprised a Shimadzu liquid chromatograph separation system equipped with degasser DGU-20A3, solvent delivery unit LC-20AD, system controller CBM-20A, column oven CTO-10ASVP and CTC Analytics HTC PAL System. Chromatographic conditions included a Phenomenex column, 5.0μ C18 (2.0×50 mm); a mobile phase of 0.1% formic acid in acetonitrile and 0.1% formic acid in water; an elution rate of 500 μL/min; column temperature 25 C; injection volume 10 μL. Mass spectrometric analysis was performed using an API 4000 instrument from AB Inc. (Canada) with an ESI interface. The data acquisition and control system were created using Analyst 1.5.1 software from ABI Inc. A turbo spray ion source and electrospray ionization were employed in a multiple reaction monitoring (MRM) scan. Additional parameters included: collision gas, 6 L/min; curtain gas, 30 L/min; nebulize gas, 50 L/min; auxiliary gas, 50 L/min; temperature, 500 C; ionspray voltage, +5500 v (positive MRM). Quadripoles Q1 and Q3 were set to 456.2 and 200.2, respectively; declustering potential (DP), entrance potential (EP), and collision cell entrance potential (CE) were set to 120, 10, and 55 v, respectively; collision cell exit potential (CXP) was 12 v.
All calculations were carried out using Microsoft Excel. Peak areas were determined from extracted ion chromatograms. The control compounds were included in the assay. Any value of the compounds that was not within the specified limits was rejected and the experiment was repeated. The reaction system without the cofactors was used to exclude the misleading factor that resulted from instability of chemical itself.

IC50 (KDM1A (LSD1)) [nM]	% at 30 min, MLM [1]	% at 30 min, MLM ([1]; numeric values of Table 2) [%]	Compound
< 1000	− (− is <20%)		COc1ccc([C@@H]2C[C@H]2NCCS(=O)(=O)C[C@H](NC(=O)c2ccc(F)cc2)C(=O)N2CCOCC2)cc1 [Example 18, 4-fluoro-N—((R)-3-((2-(((1R,2S)-2-(4-methoxyphenyl)cyclopropyl)amino)ethyl)sulfonyl)-1-morpholino-1-oxopropan-2-yl)benzamide]
< 1000	− (− is <20%)	2.3	O=C(N[C@@H](CS(=O)(=O)CCN[C@@H]1C[C@H]1c1ccc(F)cc1)C(=O)N1CCOCC1)c1ccc(F)cc1 [Example 19, 4-fluoro-N—((R)-3-((2-(((1R,2S)-2-(4-fluorophenyl)cyclopropyl)amino)ethyl)sulfonyl)-1-morpholino-1-oxopropan-2-yl)benzamide]
< 1000	+ (+ is ≥20%)		CN(C(=O)c1ccccc1)[C@@H](CCCCN[C@]1(C)C[C@H]1c1ccc(F)cc1)C(=O)N1CCN(S(C)(=O)=O)CC1 [Example 27, N-[(2S)-6-[[(1R,2S)-2-(4-fluorophenyl)-1-methylcyclopropyl]amino]-1-(4-methanesulfonylpiperazin-1-yl)-1-oxohexan-2-yl]-N-methylbenzamide]
